In general, IC50 refers to the concentration needed to halve the response being measured. A higher IC50 goes with weaker potency in that assay. Usually half-life stands for the time in which the quantity being followed falls by half. Low readings indicate rapid decline, high ones slow decline.

4 molecules from ChEMBL document CHEMBL4043130, “Discovery of a tetrahydroisoquinoline-based HDAC inhibitor with improved plasma stability” (Bioorg Med Chem, 2017) can be followed below.

Series [1] can be described thus: Inhibition of HDAC in human HeLa nuclear extract preincubated for 5 mins followed by Boc-Lys (acetyl)-AMC addition measured after 10 mins by fluorescence assay.
The nature of series [2]: Half life in rat plasma by HPLC analysis. It is filed as ADME, cell-free.
The subject of a further series is U-937. The series is described as follows: Antiproliferative activity against human U937 cells after 48 hrs by MTT assay. It is filed as functional, cell-based. As to conditions: U-937, 48 h.
Series [3] has as its target Histone deacetylase 1/2/3 (Homo sapiens) (UniProt Q13547+O15379+Q92769). The series is described as follows: Inhibition of HDAC1/2/3 in human MDA-MB-231 cells assessed as increase in hyperacetylation of histone H3 level at 1 uM after 3 hrs by Western blot analysis. It is filed as cell-based.
Series [4] relates to MDA-MB-231. Description: Antitumor activity against human MDA-MB-231 cells xenografted subcutaneously in BALB/c nude mouse assessed as reduction in tumor growth at 90 mg/kg, po. It is filed as functional, organism-based. On the technique in general: Xenograft models place foreign cells or tissue in a host animal.
Series [5] concerns MDA-MB-231. The series is described as follows: Antiproliferative activity against human MDA-MB-231 cells after 48 hrs by MTT assay. It is filed as functional, cell-based. As to conditions: MDA-MB-231, 48 h. (Formazan colour is commonly taken as a measure of viable cells.)
The next series concerns U-266. Description: Antiproliferative activity against human U266 cells after 48 hrs by MTT assay. Format: functional, cell-based. As to conditions: U-266, 48 h.
Series [6] has as its system MDA-MB-231. The series is described as follows: Antitumor activity against human MDA-MB-231 cells xenografted subcutaneously in BALB/c nude mouse assessed as reduction in tumor volume at 90 mg/kg, po. It is filed as functional, organism-based.
For series [7], the target named is T1, Protein deacetylase HDAC6 (Homo sapiens) (UniProt Q9UBN7).
T1 sequence (whole entry): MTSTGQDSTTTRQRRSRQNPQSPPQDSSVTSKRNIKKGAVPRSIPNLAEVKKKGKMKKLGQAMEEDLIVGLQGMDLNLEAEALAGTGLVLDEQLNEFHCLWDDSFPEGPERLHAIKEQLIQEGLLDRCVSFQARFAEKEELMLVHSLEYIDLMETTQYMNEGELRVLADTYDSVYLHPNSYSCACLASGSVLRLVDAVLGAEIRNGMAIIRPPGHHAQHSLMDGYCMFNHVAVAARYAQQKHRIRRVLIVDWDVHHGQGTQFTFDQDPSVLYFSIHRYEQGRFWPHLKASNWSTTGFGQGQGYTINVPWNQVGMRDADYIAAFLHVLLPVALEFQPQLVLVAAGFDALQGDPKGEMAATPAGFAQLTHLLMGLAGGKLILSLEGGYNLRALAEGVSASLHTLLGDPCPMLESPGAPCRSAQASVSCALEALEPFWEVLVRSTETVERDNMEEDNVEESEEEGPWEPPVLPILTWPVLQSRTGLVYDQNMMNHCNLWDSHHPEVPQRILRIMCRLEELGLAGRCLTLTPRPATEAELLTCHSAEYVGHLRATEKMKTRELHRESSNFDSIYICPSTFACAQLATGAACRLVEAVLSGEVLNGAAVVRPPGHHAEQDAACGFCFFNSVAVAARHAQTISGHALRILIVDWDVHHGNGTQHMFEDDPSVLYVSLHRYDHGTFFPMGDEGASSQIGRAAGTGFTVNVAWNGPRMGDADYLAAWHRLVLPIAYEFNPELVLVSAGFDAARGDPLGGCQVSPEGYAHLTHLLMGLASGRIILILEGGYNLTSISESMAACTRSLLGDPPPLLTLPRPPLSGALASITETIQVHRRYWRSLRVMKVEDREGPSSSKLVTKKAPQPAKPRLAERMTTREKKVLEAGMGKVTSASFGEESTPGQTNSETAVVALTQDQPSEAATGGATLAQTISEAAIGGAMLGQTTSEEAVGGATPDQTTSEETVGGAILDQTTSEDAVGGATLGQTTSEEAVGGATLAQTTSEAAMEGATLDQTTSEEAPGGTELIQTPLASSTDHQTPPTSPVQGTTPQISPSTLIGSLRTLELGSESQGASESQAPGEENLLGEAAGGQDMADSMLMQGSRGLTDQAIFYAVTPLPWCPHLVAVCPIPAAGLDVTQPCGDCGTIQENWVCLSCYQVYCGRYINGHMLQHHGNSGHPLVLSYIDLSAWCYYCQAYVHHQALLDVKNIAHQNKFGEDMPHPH
The series is described as follows: Inhibition of HDAC6 in human MDA-MB-231 cells assessed as increase in acetylated alpha tubulin level at 1 uM after 3 hrs by Western blot analysis. It is filed as cell-based. In general terms: A western blot detects proteins with antibodies after separation by electrophoresis.

SMILES strings stand for the structures. The source made the active and inactive calls. The rule behind the calls is not given here.

In turn, `CC[C@H](C)[C@H](NC(=O)OC(C)(C)C)C(=O)N1Cc2cc(OCC(=O)NO)ccc2C[C@H]1C(=O)Nc1ccc(N(C)C)cc1` showed an IC50 in series [1] of 55 nM. Besides, in series [2], the half-life was 2.18 h.

In the case of `CC[C@H](C)[C@H](NC(=O)CC(C)(C)C)C(=O)N1Cc2cc(OCC(=O)NO)ccc2C[C@H]1C(=O)Nc1ccc(OC)cc1`, the IC50 with U-937 was found to be 560 nM; in series [1], 69.4 nM; in the series on MDA-MB-231 [5] it was 2560 nM; in the series with U-266, 690 nM. The inhibition entry (in [3]; in the series on MDA-MB-231 [6]; in [7]) was “Active” throughout. Besides, the TGI result with MDA-MB-231 [4] was “Active”. In addition, in series [2], the half-life worked out at 1.72 h.

`CN(C)c1ccc(NC(=O)[C@@H]2Cc3ccc(OCC(=O)NO)cc3CN2C(=O)CNC(=O)CC(C)(C)C)cc1`: in series [1], the midpoint of inhibition, the IC50, lay at 377 nM. This molecule also registered a half-life in series [2] of 1.13 h.

As to `CC[C@H](C)[C@H](NC(=O)CC(C)(C)C)C(=O)N1Cc2cc(OCC(=O)NO)ccc2C[C@H]1C(=O)Nc1ccc(N(C)C)cc1`, the IC50 amounted to 550 nM in the series on U-937, 38.5 nM in series [1], 2130 nM with MDA-MB-231 [5] and 780 nM in the series with U-266. The inhibition entry (in series [3]; in the series with MDA-MB-231 [6]; in [7]) was “Active” in each case. Further, the TGI entry with MDA-MB-231 [4] was “Active”. For the same molecule, the half-life in series [2] is 10.5 h.
